{"source": "patent US20240166626A1", "about": "“Compounds and Methods for Preventing, Treating, or Ameliorating Airway Disease” (THOMAS JEFFERSON UNIVERSITY, priority 2021, published 2024)", "target": "FLAG-β2AR (Homo sapiens, UniProt P07550)", "sequence (P07550 whole entry)": "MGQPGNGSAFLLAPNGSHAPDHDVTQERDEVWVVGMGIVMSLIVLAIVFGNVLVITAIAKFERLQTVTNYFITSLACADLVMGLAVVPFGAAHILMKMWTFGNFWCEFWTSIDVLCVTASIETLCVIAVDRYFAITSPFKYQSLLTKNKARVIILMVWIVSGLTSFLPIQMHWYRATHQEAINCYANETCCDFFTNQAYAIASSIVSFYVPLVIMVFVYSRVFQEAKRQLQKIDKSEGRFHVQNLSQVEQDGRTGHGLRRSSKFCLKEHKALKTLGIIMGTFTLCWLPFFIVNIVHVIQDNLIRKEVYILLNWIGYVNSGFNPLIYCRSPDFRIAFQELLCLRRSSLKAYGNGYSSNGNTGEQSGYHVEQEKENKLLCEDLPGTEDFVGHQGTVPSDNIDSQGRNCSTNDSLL", "assay": "Receptor internalization, cell surface ELISA, HEK 293 FLAG-β2AR", "format": "cell-based", "conditions": "10 μM DFPQ, ISO up to 60 min, FIG. 4A", "method": "FIGS. 4A-4F: DFPQ inhibits internalization of the β2AR and protects from agonist induced desensitization in cell and tissue models. FIG. 4A: Effect of DFPQ on agonist-promoted internalization of the β2AR. […] Cells were fixed and receptor surface expression was measured by ELISA. […] Cells were lysed and cAMP production was measured by ELISA. […] FIG. 4C: […] Airway contractility was measured by luminal area of bronchioles by microscopy at various times. FIG. 4D: […] HASM cells were scratched and incubated overnight in PDGF containing serum free media. Cells were imaged to evaluate migration into the scratched area. […] Cells were read every three minutes for 18 minutes on a PolarStar Optima plate reader (BMG) to establish peak signal. […] Luminescence was determined at room temperature (23-25° C.) on a PolarStar Optima plate reader (BMG). […] Relative assay bias was calculated from the ratio of normalized cAMP and arrestin recruitment responses. […] BRET was measured using a Tecan Infinite F500 microplate reader. […] Bound [35 S]GTPγS was collected by rapid filtration on GF/B filters, washed 4 times with 4 ml of cold GTPγS wash buffer and analyzed by liquid scintillation counting. […] Immunoprecipitated proteins were separated by SDS-PAGE and analyzed by western blot using a β2AR C-terminal tail or phospho-specific antibody. […] Band intensity was measured by densitometry using ImageJ. […]"}
{"smiles": "Fc1ccc(Nc2nc(NC3CCCCC3)c3ccccc3n2)cc1F", "note": "[DFPQ, N^4-cyclohexyl-N^2-(3,4-difluorophenyl)quinazoline-2,4-diamine]", "values": [{"measurement": "agonist-induced internalization of the receptor", "result": "fully inhibited"}]}
